Values quoted from earlier work as cited in patent US10984362B2, “Methods for post-harvest crop pest management” (priority 2017, dated 2021).
Read-outs that look alike come from different tables or passages of the source.

Key:
[1] = tested on: resistant cigarette beetle; details: 100% control of all development stages
[2] = tested on: tobacco moth and susceptible cigarette beetle; details: 100% control of all development stages
[3] = tobacco temperature 16-20 °C (61-68 °F), 300 ppm phosphine at the bale/case centre

## P [Phosphine, phosphine]
[1]; [3]
  Minimum Exposure Time: 12 days
[1]; tobacco temperature 20-25 °C (68-77 °F), 300 ppm phosphine at the bale/case centre
  Minimum Exposure Time: 12 days
[1]; tobacco temperature 20-25 °C (68-77 °F), 700 ppm phosphine at the bale/case centre
  Minimum Exposure Time: 10 days
[1]; tobacco temperature >25 °C (>77 °F), 300 ppm phosphine at the bale/case centre
  Minimum Exposure Time: 12 days
[1]; tobacco temperature >25 °C (>77 °F), 600 ppm phosphine at the bale/case centre
  Minimum Exposure Time: 6 days
[2]; [3]
  Minimum Exposure Time: 6 days
[2]; tobacco temperature >20 °C (>68 °F), 200 ppm phosphine at the bale/case centre
  Minimum Exposure Time: 4 days
